Data reported in ChEMBL document CHEMBL1641516, “Preparation and evaluation of trisubstituted pyrimidines as phosphatidylinositol 3-kinase inhibitors. 3-Hydroxyphenol analogues and bioisosteric replacements” (Bioorg Med Chem, 2011).

Experiments:
[1] = biological target: Phosphatidylinositol 4,5-bisphosphate 3-kinase catalytic subunit beta isoform (Homo sapiens, UniProt P42338); test: Inhibition of human recombinant PI3K p110beta after 1 hr by radiometric scintillation proximity assay
[2] = Metabolic stability in mouse liver microsomes assessed as compound metabolized at […] after 30 mins by MS analysis; assay type: ADME, Microsome; conditions: read-out: Activity
[3] = Metabolic stability in mouse liver microsomes assessed as compound metabolized at […] after 15 mins by MS analysis; assay type: ADME, Microsome; conditions: read-out: Activity
[4] = test system: IGROV-1; test: Cell cycle arrest in human IGROV1 cells assessed as accumulation at G1 phase at 1 fold IC50 after 24 hrs by flow cytometry; assay type: functional
[5] = test system: IGROV-1; test: Cell cycle arrest in human IGROV1 cells assessed as accumulation at G1 phase at 5 fold IC50 after 24 hrs by flow cytometry; assay type: functional
[6] = test system: IGROV-1; test: Cell cycle arrest in human IGROV1 cells assessed as accumulation at S phase at 1 fold IC50 after 24 hrs by flow cytometry; assay type: functional
[7] = test system: IGROV-1; test: Cell cycle arrest in human IGROV1 cells assessed as accumulation at S phase at 5 fold IC50 after 24 hrs by flow cytometry; assay type: functional
[8] = test system: IGROV-1; test: Cell cycle arrest in human IGROV1 cells assessed as accumulation at G2/M phase at 1 fold IC50 after 24 hrs by flow cytometry; assay type: functional
[9] = test system: IGROV-1; test: Cell cycle arrest in human IGROV1 cells assessed as accumulation at G2/M phase at 5 fold IC50 after 24 hrs by flow cytometry; assay type: functional
[10] = biological target: Phosphatidylinositol 4,5-bisphosphate 3-kinase catalytic subunit alpha isoform (Homo sapiens, UniProt P42336)
Sequence of Phosphatidylinositol 4,5-bisphosphate 3-kinase catalytic subunit alpha isoform (P42336 whole entry, canonical isoform): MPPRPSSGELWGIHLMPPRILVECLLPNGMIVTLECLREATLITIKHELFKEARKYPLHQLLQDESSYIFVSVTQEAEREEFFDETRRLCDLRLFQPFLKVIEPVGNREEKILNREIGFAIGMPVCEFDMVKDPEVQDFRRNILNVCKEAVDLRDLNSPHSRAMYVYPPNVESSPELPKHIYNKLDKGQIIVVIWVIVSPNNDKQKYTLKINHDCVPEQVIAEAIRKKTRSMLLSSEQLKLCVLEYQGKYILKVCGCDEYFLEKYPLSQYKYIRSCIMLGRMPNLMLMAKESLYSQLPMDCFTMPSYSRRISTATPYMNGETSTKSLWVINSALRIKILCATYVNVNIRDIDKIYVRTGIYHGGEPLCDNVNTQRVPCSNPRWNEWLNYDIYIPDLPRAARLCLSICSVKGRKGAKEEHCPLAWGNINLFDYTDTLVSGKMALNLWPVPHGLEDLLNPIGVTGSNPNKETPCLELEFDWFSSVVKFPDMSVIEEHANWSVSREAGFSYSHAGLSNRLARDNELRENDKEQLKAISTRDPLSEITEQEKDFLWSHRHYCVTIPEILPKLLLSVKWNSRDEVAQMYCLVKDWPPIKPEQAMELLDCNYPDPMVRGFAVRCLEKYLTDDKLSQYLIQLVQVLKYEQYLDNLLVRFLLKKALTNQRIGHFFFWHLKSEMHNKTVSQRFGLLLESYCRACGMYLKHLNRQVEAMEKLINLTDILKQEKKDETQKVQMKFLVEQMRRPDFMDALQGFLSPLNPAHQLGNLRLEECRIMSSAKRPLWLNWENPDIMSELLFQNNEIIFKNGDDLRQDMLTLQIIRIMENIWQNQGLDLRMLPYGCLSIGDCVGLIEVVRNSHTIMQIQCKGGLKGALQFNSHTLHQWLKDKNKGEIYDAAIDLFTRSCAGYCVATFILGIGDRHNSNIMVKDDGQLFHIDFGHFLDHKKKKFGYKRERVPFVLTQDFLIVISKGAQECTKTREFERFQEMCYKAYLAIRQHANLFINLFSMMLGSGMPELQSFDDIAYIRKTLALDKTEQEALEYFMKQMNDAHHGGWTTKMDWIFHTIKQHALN
Description: Inhibition of human recombinant PI3K p110alpha after 1 hr by radiometric scintillation proximity assay

[11] = biological target: Phosphatidylinositol 4,5-bisphosphate 3-kinase catalytic subunit gamma isoform (Homo sapiens, UniProt P48736)
Sequence of Phosphatidylinositol 4,5-bisphosphate 3-kinase catalytic subunit gamma isoform (P48736 whole entry, canonical isoform): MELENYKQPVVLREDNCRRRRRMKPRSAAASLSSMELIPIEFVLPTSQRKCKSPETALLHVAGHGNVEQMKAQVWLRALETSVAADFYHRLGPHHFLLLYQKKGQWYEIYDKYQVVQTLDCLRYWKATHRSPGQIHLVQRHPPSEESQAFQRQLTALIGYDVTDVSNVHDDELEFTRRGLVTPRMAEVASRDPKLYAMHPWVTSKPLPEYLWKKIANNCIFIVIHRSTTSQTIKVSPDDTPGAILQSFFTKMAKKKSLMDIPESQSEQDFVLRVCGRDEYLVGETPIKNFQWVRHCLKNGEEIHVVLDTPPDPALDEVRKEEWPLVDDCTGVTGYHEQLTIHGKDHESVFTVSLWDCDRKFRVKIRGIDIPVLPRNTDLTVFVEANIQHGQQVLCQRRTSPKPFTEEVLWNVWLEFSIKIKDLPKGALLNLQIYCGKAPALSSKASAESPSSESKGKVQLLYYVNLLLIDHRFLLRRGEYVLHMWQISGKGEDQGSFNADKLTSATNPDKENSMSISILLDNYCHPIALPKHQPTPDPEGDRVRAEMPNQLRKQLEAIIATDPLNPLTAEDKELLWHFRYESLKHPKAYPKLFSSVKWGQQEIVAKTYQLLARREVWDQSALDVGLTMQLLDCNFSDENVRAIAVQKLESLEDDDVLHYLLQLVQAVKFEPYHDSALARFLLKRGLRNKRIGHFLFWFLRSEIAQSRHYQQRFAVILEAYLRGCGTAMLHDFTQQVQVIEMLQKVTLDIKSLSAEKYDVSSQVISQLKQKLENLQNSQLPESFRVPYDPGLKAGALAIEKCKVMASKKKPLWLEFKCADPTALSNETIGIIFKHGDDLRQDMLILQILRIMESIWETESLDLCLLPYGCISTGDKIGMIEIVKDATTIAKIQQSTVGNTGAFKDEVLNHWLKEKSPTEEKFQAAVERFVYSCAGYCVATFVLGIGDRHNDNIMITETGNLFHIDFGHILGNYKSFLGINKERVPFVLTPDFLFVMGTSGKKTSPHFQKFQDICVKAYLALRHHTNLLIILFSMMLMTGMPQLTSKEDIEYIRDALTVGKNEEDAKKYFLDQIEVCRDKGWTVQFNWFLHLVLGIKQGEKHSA
Description: Inhibition of human recombinant PI3K p110gamma after 1 hr by radiometric scintillation proximity assay

[12] = test system: IGROV-1; test: cells; conditions: Homo sapiens, IGROV-1, 96 h
Description: Cytotoxicity against human IGROV1 cells after 96 hrs by SRB assay

Sequence of Phosphatidylinositol 4,5-bisphosphate 3-kinase catalytic subunit beta isoform (P42338 whole entry, canonical isoform): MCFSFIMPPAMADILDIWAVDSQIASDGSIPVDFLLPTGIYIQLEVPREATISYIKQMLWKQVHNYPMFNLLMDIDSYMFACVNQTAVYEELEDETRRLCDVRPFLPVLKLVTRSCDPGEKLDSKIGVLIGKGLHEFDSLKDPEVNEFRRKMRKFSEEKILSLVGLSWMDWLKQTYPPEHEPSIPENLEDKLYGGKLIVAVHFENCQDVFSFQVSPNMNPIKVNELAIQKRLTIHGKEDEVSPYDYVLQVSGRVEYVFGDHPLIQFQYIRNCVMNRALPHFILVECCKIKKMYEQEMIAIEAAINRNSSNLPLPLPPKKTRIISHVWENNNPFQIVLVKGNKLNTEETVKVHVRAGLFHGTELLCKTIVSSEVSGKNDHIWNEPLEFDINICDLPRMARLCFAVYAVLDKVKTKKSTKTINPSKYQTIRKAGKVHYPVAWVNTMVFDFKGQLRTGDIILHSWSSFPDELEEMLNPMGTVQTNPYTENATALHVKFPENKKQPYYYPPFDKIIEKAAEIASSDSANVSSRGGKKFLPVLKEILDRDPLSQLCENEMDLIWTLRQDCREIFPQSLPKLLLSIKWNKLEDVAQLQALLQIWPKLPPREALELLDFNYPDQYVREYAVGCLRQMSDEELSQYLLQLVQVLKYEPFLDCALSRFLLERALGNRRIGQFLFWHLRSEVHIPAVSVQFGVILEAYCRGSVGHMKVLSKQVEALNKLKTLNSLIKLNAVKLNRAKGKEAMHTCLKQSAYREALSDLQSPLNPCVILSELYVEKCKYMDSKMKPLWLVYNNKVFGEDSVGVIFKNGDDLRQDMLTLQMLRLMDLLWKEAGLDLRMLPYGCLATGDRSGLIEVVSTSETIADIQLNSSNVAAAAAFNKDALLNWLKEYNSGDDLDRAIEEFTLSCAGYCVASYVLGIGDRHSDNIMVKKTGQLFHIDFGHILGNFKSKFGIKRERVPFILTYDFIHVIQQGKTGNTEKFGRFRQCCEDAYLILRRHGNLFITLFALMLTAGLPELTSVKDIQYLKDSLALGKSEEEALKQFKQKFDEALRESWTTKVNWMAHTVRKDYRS

Row | IC50 [10] [nM] | Structure (SMILES) | GI50 [12] [nM] | further results
1 | 62 | Oc1cccc(-c2nc(-c3ccccn3)cc(N3CCOCC3)n2)c1 | 370 | IC50 [1]: 100 nM; metabolised at 0.5 h [2]: 57%; metabolised at 0.25 h [3]: 39%; Activity [4]: 76%; Activity [5]: 84%; Activity [6]: 20%; Activity [7]: 5%; Activity [8]: 3%; Activity [9]: 10%; IC50 [11]: 44 nM
2 | 1000 | Oc1cccc(-c2cc(N3CCOCC3)nc(NCc3ccccn3)n2)c1 | – | –
3 | > 10000 | c1ccc(COc2cccc(-c3nc(-c4ccccn4)cc(N4CCOCC4)n3)c2)cc1 | – | –
4 | > 10000 | Clc1ccc(-c2cc(N3CCOCC3)nc(-c3cccc(OCc4ccccc4)c3)n2)cc1Cl | – | –
5 | > 10000 | Clc1ccc(-c2cc(N3CCOCC3)nc(-c3cccc(OCc4ccccc4)c3)n2)cc1 | – | –
6 | 860 | Oc1cccc(-c2cc(N3CCOCC3)nc(NCc3ccncc3)n2)c1 | – | –
7 | 180 | Oc1cccc(-c2cc(N3CCOCC3)nc(NCCc3ccccn3)n2)c1 | 1200 | IC50 [1]: 5200 nM; IC50 [11]: 380 nM
8 | 5200 | c1ccc(COc2nc(-c3ccc4cc[nH]c4c3)cc(N3CCOCC3)n2)nc1 | 9000 | –
9 | 7200 | c1cncc(CCNc2nc(-c3ccc4cc[nH]c4c3)cc(N3CCOCC3)n2)c1 | 4200 | –
10 | 880 | Oc1cccc(-c2cc(N3CCOCC3)nc(NCc3cccnc3)n2)c1 | – | –
11 | 860 | Oc1cccc(-c2cc(N3CCOCC3)nc(OCc3ccccn3)n2)c1 | 2500 | –
12 | 690 | Oc1cccc(-c2nc(-c3ccc(Cl)cc3)cc(N3CCOCC3)n2)c1 | – | –
13 | > 10000 | c1ccc(COc2cccc(-c3nc(-c4cccnc4)cc(N4CCOCC4)n3)c2)cc1 | – | –
14 | 250 | Oc1cccc(-c2cc(N3CCOCC3)nc(NCCc3cccnc3)n2)c1 | 750 | –
15 | 230 | Oc1cccc(-c2cc(N3CCOCC3)nc(NCCc3ccncc3)n2)c1 | 950 | –
16 | 110 | Oc1cccc(-c2cc(OCc3ccccn3)nc(N3CCOCC3)n2)c1 | 1500 | IC50 [1]: 370 nM; IC50 [11]: 730 nM
17 | 900 | Oc1cccc(-c2cc(NCc3ccccn3)nc(N3CCOCC3)n2)c1 | – | IC50 [1]: 2300 nM; IC50 [11]: 7600 nM
18 | > 10000 | c1ccc(COc2cccc(-c3nc(-c4ccncc4)cc(N4CCOCC4)n3)c2)cc1 | – | –
19 | 260 | Oc1cccc(-c2nc(-c3cccnc3)cc(N3CCOCC3)n2)c1 | 630 | IC50 [1]: 440 nM; IC50 [11]: 340 nM
20 | 200 | Oc1cccc(-c2nc(-c3ccc(Cl)c(Cl)c3)cc(N3CCOCC3)n2)c1 | – | –
21 | 140 | Oc1cccc(-c2nc(-c3ccncc3)cc(N3CCOCC3)n2)c1 | 1200 | IC50 [1]: 200 nM; IC50 [11]: 150 nM

Continued, compound first:

Row | Structure (SMILES) | IC50 [10] [nM] | GI50 [12] [nM] | further results
22 | Oc1cccc(-c2cc(NCCc3ccncc3)nc(N3CCOCC3)n2)c1 | 140 | 700 | IC50 [1]: 1600 nM; metabolised at 0.5 h [2]: 71%; metabolised at 0.25 h [3]: 54%; Activity [4]: 75%; Activity [5]: 87%; Activity [6]: 21%; Activity [7]: 2%; Activity [8]: 4%; Activity [9]: 10%; IC50 [11]: 740 nM
23 | CS(=O)(=O)Nc1ccc(-c2cc(N3CCOCC3)nc(OCc3ccccn3)n2)cc1 | 6200 | 13500 | –
24 | c1cncc(CCNc2cc(-c3cccc4[nH]ncc34)nc(N3CCOCC3)n2)c1 | 660 | 2900 | metabolised at 0.5 h [2]: 98%; metabolised at 0.25 h [3]: 66%
25 | c1cc(CCNc2cc(-c3ccc4cc[nH]c4c3)nc(N3CCOCC3)n2)ccn1 | > 10000 | 14500 | –
26 | CS(=O)(=O)Nc1cccc(-c2cc(N3CCOCC3)nc(NCCc3ccncc3)n2)c1 | 9100 | 6200 | metabolised at 0.5 h [2]: 53%; metabolised at 0.25 h [3]: 33%
27 | c1ccc(CCNc2cc(-c3cccc4[nH]ncc34)nc(N3CCOCC3)n2)nc1 | 1300 | 7800 | metabolised at 0.5 h [2]: 84%; metabolised at 0.25 h [3]: 58%
28 | CS(=O)(=O)Nc1cccc(-c2cc(NCCc3cccnc3)nc(N3CCOCC3)n2)c1 | > 10000 | 11600 | –
29 | CS(=O)(=O)Nc1cccc(-c2cc(N3CCOCC3)nc(NCCc3ccccn3)n2)c1 | > 10000 | 11500 | –
30 | c1ccc(CCNc2cc(-c3ccc4cc[nH]c4c3)nc(N3CCOCC3)n2)nc1 | > 10000 | 12000 | –
31 | c1cc(CCNc2nc(-c3ccc4cc[nH]c4c3)cc(N3CCOCC3)n2)ccn1 | > 10000 | 3000 | metabolised at 0.5 h [2]: 60%; metabolised at 0.25 h [3]: 38%
32 | c1ccc(COc2cc(-c3ccc4cc[nH]c4c3)nc(N3CCOCC3)n2)nc1 | > 10000 | 6000 | –
33 | CS(=O)(=O)Nc1cccc(-c2cc(N3CCOCC3)nc(NCCc3cccnc3)n2)c1 | > 10000 | 16200 | –
34 | Oc1cccc(-c2cc(NCCc3ccccn3)nc(N3CCOCC3)n2)c1 | 250 | 2200 | IC50 [1]: 2600 nM; IC50 [11]: 830 nM
35 | Oc1cccc(-c2cc(NCc3ccncc3)nc(N3CCOCC3)n2)c1 | 1000 | – | –
36 | c1ccc(COc2cc(-c3cccc4[nH]ncc34)nc(N3CCOCC3)n2)nc1 | 500 | 1900 | metabolised at 0.5 h [2]: 66%; metabolised at 0.25 h [3]: 44%
37 | c1ccc(CCNc2nc(-c3cccc4[nH]ncc34)cc(N3CCOCC3)n2)nc1 | 1100 | 2700 | –
38 | CS(=O)(=O)Nc1ccc(-c2cc(OCc3ccccn3)nc(N3CCOCC3)n2)cc1 | > 10000 | 16000 | –
39 | c1cc(-c2cc(N3CCOCC3)nc(NCCc3ccncc3)n2)c2cn[nH]c2c1 | 440 | 1500 | metabolised at 0.5 h [2]: 74%; metabolised at 0.25 h [3]: 49%
40 | c1ccc(COc2nc(-c3cccc4[nH]ncc34)cc(N3CCOCC3)n2)nc1 | 1350 | 2300 | –
41 | c1cncc(CCNc2cc(-c3ccc4cc[nH]c4c3)nc(N3CCOCC3)n2)c1 | > 10000 | 6000 | –
42 | c1cc(-c2cc(NCCc3ccncc3)nc(N3CCOCC3)n2)c2cn[nH]c2c1 | 770 | 2700 | metabolised at 0.5 h [2]: 68%; metabolised at 0.25 h [3]: 37%
43 | O=c1cc(N2CCOCC2)oc2c(-c3ccccc3)cccc12 [LY-294002] | – | – | Activity [4]: 72%; Activity [5]: 82%; Activity [6]: 21%; Activity [7]: 3%; Activity [8]: 7%; Activity [9]: 15%
44 | CS(=O)(=O)Nc1cccc(-c2cc(NCCc3ccncc3)nc(N3CCOCC3)n2)c1 | > 10000 | 15000 | –
45 | CS(=O)(=O)Nc1cccc(-c2cc(NCCc3ccccn3)nc(N3CCOCC3)n2)c1 | > 10000 | 15000 | –
46 | c1cncc(CCNc2nc(-c3cccc4[nH]ncc34)cc(N3CCOCC3)n2)c1 | 820 | 2900 | –
47 | Oc1cccc(-c2cc(NCCc3cccnc3)nc(N3CCOCC3)n2)c1 | 260 | 1200 | IC50 [1]: 1900 nM; IC50 [11]: 960 nM
